Experimental data from patent US5250283A, “Organic contrast agent analog and method of making same” (priority 1992, dated 1993).
Where a name gives a salt, the structure may show the parent alone. Read-outs that look alike come from different tables or passages of the source.

Assays:
[1] = Tissue distribution 90 min after i.v. TFA-IOP (100 umol/kg) or IOP (100 in text, 104 umol/kg in tables) in rats; assay type: in vivo; conditions: rat; for concentration at 1.5 h / tissue uptake at 1.5 h: iv; for concentration at 1.5 h: 100 umol/kg; for Percentage of dose in tissue: Table 6; for tissue uptake at 1.5 h: in vivo, read-out: Percentage of dose per gram
Text: No standard curves were compiled for these tissues. The values given
represent concentrations generated using the LIVER analysis routine and
standard curve. Because this routine utilizes a control LIVER spectra for
background modeling, erroneous Iodine concentration values for these
tissues may result due to inappropriate background removal.

[2] = Plasma concentration after i.v. IOP or TFA-IOP in rats; assay type: in vivo; conditions: rat
[3] = Biliary excretion and bile flow after i.v. TFA-IOP (100 umol/kg) or IOP (100 in text, 104 umol/kg in tables) in rats; conditions: for Percentage of dose per kg. body wt.: rat bile
Method: Tissues examined included liver, spleen, upper GI, lower GI, kidney, lung and heart. The length of each study was 90 minutes, during which time bile, urine and plasma samples were taken to monitor uptake and excretion. NMR relaxation rates for liver and plasma were also examined to note whether uptake of either compound might possible alter these parameters.

[4] = i.v., 90 min, Table 1, liver standard curve, may be erroneous

CCC(Cc1c(I)cc(I)c(NC(=O)C(F)(F)F)c1I)C(=O)O (stereo not shown) [TFA-IOP, N-trifluoroacetyl-iopanoic acid]
concentration at 1.5 h ([1]; heart, i.v., 90 min, liver standard curve used, may be erroneous, read-out: Heart concentration): 243 µM
% of dose in kidney ([1]; i.v., 90 min, Table 1): 0.34%
% of dose in liver ([1]; i.v., 90 min, Table 1): 6.04%
% of dose in heart [1, 4]: 0.72%
% of dose in lower GI [1, 4]: 0.63%
% of dose in lung [1, 4]: 0.83%
% of dose in spleen [1, 4]: 0.24%
% of dose in upper GI [1, 4]: 0.41%
Percentage of dose per kg b.wt. ([1]; i.v., 90 min, heart): 1.66 PERCENTAGE OF DOSE per kg b.wt
uMoles in tissue ([1]; i.v., 90 min, heart): .31 µmol
uMoles per gram tissue ([1]; i.v., 90 min, heart): .24 uMOLES per gram
uMoles per kg ([1]; i.v., 90 min, heart): 242.85 uMOLES per kg
Percentage of dose in tissue ([1]; i.v., 90 min, heart): .72 PERCENTAGE OF DOSE
Percentage of dose per kg b.wt. ([1]; i.v., 90 min, kidney): .78 PERCENTAGE OF DOSE per kg b.wt
uMoles in tissue ([1]; i.v., 90 min, kidney): .15 µmol
uMoles per gram tissue ([1]; i.v., 90 min, kidney): .06 uMOLES per gram
uMoles per kg ([1]; i.v., 90 min, kidney): 57.84 uMOLES per kg
Percentage of dose in tissue ([1]; i.v., 90 min, kidney): .34 PERCENTAGE OF DOSE
Percentage of dose per kg b.wt. ([1]; i.v., 90 min, liver): 13.88 PERCENTAGE OF DOSE per kg b.wt
uMoles in tissue ([1]; i.v., 90 min, liver): 2.63 µmol
uMoles per gram tissue ([1]; i.v., 90 min, liver): .20 uMOLES per gram
uMoles per kg ([1]; i.v., 90 min, liver): 201.73 uMOLES per kg
Percentage of dose in tissue ([1]; i.v., 90 min, liver): 6.04 PERCENTAGE OF DOSE
Percentage of dose per kg b.wt. ([1]; i.v., 90 min, lower GI): 1.45 PERCENTAGE OF DOSE per kg b.wt
uMoles in tissue ([1]; i.v., 90 min, lower GI): .27 µmol
uMoles per gram tissue ([1]; i.v., 90 min, lower GI): .18 uMOLES per gram
uMoles per kg ([1]; i.v., 90 min, lower GI): 178.09 uMOLES per kg
Percentage of dose in tissue ([1]; i.v., 90 min, lower GI): .63 PERCENTAGE OF DOSE
Percentage of dose per kg b.wt. ([1]; i.v., 90 min, lung): 1.91 PERCENTAGE OF DOSE per kg b.wt
uMoles in tissue ([1]; i.v., 90 min, lung): .36 µmol
uMoles per gram tissue ([1]; i.v., 90 min, lung): .28 uMOLES per gram
uMoles per kg ([1]; i.v., 90 min, lung): 277.64 uMOLES per kg
Percentage of dose in tissue ([1]; i.v., 90 min, lung): .83 PERCENTAGE OF DOSE
Percentage of dose per kg b.wt. ([1]; i.v., 90 min, spleen): .55 PERCENTAGE OF DOSE per kg b.wt
uMoles in tissue ([1]; i.v., 90 min, spleen): .10 µmol
uMoles per gram tissue ([1]; i.v., 90 min, spleen): .16 uMOLES per gram
uMoles per kg ([1]; i.v., 90 min, spleen): 164.06 uMOLES per kg
Percentage of dose in tissue ([1]; i.v., 90 min, spleen): .24 PERCENTAGE OF DOSE
Percentage of dose per kg b.wt. ([1]; i.v., 90 min, upper GI): .94 PERCENTAGE OF DOSE per kg b.wt
uMoles in tissue ([1]; i.v., 90 min, upper GI): .18 µmol
uMoles per gram tissue ([1]; i.v., 90 min, upper GI): .14 uMOLES per gram
uMoles per kg ([1]; i.v., 90 min, upper GI): 140.23 uMOLES per kg
Percentage of dose in tissue ([1]; i.v., 90 min, upper GI): .41 PERCENTAGE OF DOSE
tissue uptake at 1.5 h ([1]; 90 min, heart): 0.56 %ID/g
tissue uptake at 1.5 h ([1]; 90 min, kidney): 0.13 %ID/g
tissue uptake at 1.5 h ([1]; 90 min, liver): 0.46 %ID/g
tissue uptake at 1.5 h ([1]; 90 min, lower GI): 0.41 %ID/g
tissue uptake at 1.5 h ([1]; 90 min, lung): 0.64 %ID/g
tissue uptake at 1.5 h ([1]; 90 min, spleen): 0.38 %ID/g
tissue uptake at 1.5 h ([1]; 90 min, upper GI): 0.32 %ID/g
concentration at 1.5 h ([1]; kidney, i.v., 90 min post injection, heading: kidney concentration, read-out: kidney concentration): 57.8 µM
concentration at 1.5 h ([1]; kidney, i.v., 90 min post injection, read-out: Kidney concentration): 57.8 µM
concentration at 1.5 h ([1]; liver, i.v., 90 min post injection, read-out: Liver concentration): 202 µM
concentration at 1.5 h ([1]; liver, i.v., 90 min post injection, read-out: liver concentration): 202 µM
concentration at 1.5 h ([1]; lower gi, i.v., 90 min, liver standard curve used, may be erroneous, read-out: Lower GI concentration): 178 µM
concentration at 1.5 h ([1]; lung, i.v., 90 min, liver standard curve used, may be erroneous, read-out: Lung concentration): 278 µM
concentration at 1.5 h ([1]; spleen, i.v., 90 min, liver standard curve used, may be erroneous, read-out: Spleen concentration): 164 µM
concentration at 1.5 h ([1]; upper gi, i.v., 90 min, liver standard curve used, may be erroneous, read-out: Upper GI concentration): 140 µM
concentration at 10 min ([2]; plasma, iv, 100 umol/kg, 10 min): 863 µM
concentration at 20 min ([2]; plasma, iv, 100 umol/kg, 20 min): 604 µM
concentration at 0.5 h ([2]; plasma, iv, 100 umol/kg, 30 min): 573 µM
concentration at 40 min ([2]; plasma, iv, 100 umol/kg, 40 min): 510 µM
concentration at 50 min ([2]; plasma, iv, 100 umol/kg, 50 min): 469 µM
concentration at 1 h ([2]; plasma, iv, 100 umol/kg, 60 min): 415 µM
concentration at 70 min ([2]; plasma, iv, 100 umol/kg, 70 min): 374 µM
concentration at 80 min ([2]; plasma, iv, 100 umol/kg, 80 min): 403 µM
concentration at 1.5 h ([2]; plasma, iv, 100 umol/kg, 90 min): 360 µM
Plasma concentration ([2]; 0 min): 0 nM
Percentage of dose per kg. body wt. ([3]; i.v., 0-10 min): 6.48 PERCENTAGE OF DOSE per kg. bod
Percentage of dose per kg. body wt. ([3]; i.v., 10-20 min): 11.22 PERCENTAGE OF DOSE per kg. bod
Percentage of dose per kg. body wt. ([3]; i.v., 20-30 min): 13.78 PERCENTAGE OF DOSE per kg. bod
Percentage of dose per kg. body wt. ([3]; i.v., 30-40 min): 12.34 PERCENTAGE OF DOSE per kg. bod
Percentage of dose per kg. body wt. ([3]; i.v., 40-50 min): 12.30 PERCENTAGE OF DOSE per kg. bod
Percentage of dose per kg. body wt. ([3]; i.v., 50-60 min): 12.60 PERCENTAGE OF DOSE per kg. bod
Percentage of dose per kg. body wt. ([3]; i.v., 60-70 min): 7.73 PERCENTAGE OF DOSE per kg. bod
Percentage of dose per kg. body wt. ([3]; i.v., 70-80 min): 7.44 PERCENTAGE OF DOSE per kg. bod
Percentage of dose per kg. body wt. ([3]; i.v., 80-90 min): 6.37 PERCENTAGE OF DOSE per kg. bod
Percentage of dose per kg. body wt. ([3]; i.v., period 10-0 min (pre-injection)): .70 PERCENTAGE OF DOSE per kg. bod
Cmax at 1.5 h ([3]; rat, bile, iv, 100 umol/kg): 0.5 µM
concentration at 0 h ([3]; rat, bile, iv, 100 umol/kg): 635 µM
concentration at 5 min ([3]; rat, bile, iv, 100 umol/kg): 3010 µM
concentration at 10 min ([3]; rat, bile, iv, 100 umol/kg): 3010 µM
concentration at 0.25 h ([3]; rat, bile, iv, 100 umol/kg): 5780 µM
concentration at 20 min ([3]; rat, bile, iv, 100 umol/kg): 5780 µM
concentration at 25 min ([3]; rat, bile, iv, 100 umol/kg): 6440 µM
concentration at 0.5 h ([3]; rat, bile, iv, 100 umol/kg): 6440 µM
concentration at 35 min ([3]; rat, bile, iv, 100 umol/kg): 7800 µM
concentration at 40 min ([3]; rat, bile, iv, 100 umol/kg): 7800 µM
concentration at 50 min ([3]; rat, bile, iv, 100 umol/kg): 7640 µM
concentration at 55 min ([3]; rat, bile, iv, 100 umol/kg): 8460 µM
concentration at 1 h ([3]; rat, bile, iv, 100 umol/kg): 8460 µM
concentration at 65 min ([3]; rat, bile, iv, 100 umol/kg): 5370 µM
concentration at 70 min ([3]; rat, bile, iv, 100 umol/kg): 5370 µM
concentration at 1.25 h ([3]; rat, bile, iv, 100 umol/kg): 5310 µM
concentration at 80 min ([3]; rat, bile, iv, 100 umol/kg): 5310 µM
concentration at 85 min ([3]; rat, bile, iv, 100 umol/kg): 4660 µM
concentration at 1.5 h ([3]; rat, bile, iv, 100 umol/kg): 4660 µM
dose excreted at 1.5 h ([3]; rat, bile, iv, 100 umol/kg): 40%
Bile flow ([3]; rat, i.v., 0-10 min): .04071 mL/min
Bile flow per kg b.w. ([3]; rat, i.v., 0-10 min): .09359 ml/min per kg b.w.
